Reference: PubChem BioAssay (NCI)
Where “and” joins values, the source holds several entries; their conditions need not be identical. Equal values may be shown once.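 Method: 48-hour compound exposure of cells in 96-well plates, five concentrations, linear interpolation of endpoints. Here, GI50 denotes the concentration required for 50% inhibition of growth. TGI marks complete inhibition of growth.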

How the values were obtained:
Assay in all cases: NCI-60 cell line screen, 48 h
CAKI-1 renal = test system: CAKI-1 renal
DLD-1 colon = test system: DLD-1 colon
HOP-18 NSCLC = test system: HOP-18 NSCLC
HT29 colon = test system: HT29 colon
KM20L2 colon = test system: KM20L2 colon
NCI-H23 lung = test system: NCI-H23 lung
RPMI-8226 leukemia = test system: RPMI-8226 leukemia
TK-10 renal = test system: TK-10 renal
UACC-257 melanoma = test system: UACC-257 melanoma
SR leukemia = test system: SR leukemia
BT-549 breast = test system: BT-549 breast

SMILES | TGI (CAKI-1 renal) | TGI (DLD-1 colon) | TGI (HOP-18 NSCLC) [µM] | TGI (HT29 colon) | TGI (KM20L2 colon) | TGI (NCI-H23 lung) | TGI (RPMI-8226 leukemia) | TGI (TK-10 renal) | TGI (UACC-257 melanoma) | TGI (SR leukemia) [µM] | GI50 (BT-549 breast) [µM] | TGI (BT-549 breast) [µM] | GI50 (CAKI-1 renal) | GI50 (HT29 colon) [µM] | GI50 (NCI-H23 lung) | GI50 (RPMI-8226 leukemia) | GI50 (SR leukemia) [µM] | GI50 (TK-10 renal) | GI50 (UACC-257 melanoma)
NC(=O)NNC/C(Cl)=C(\Cl)C(=O)O | > 100 µM | > 100 µM | > 100 | > 100 µM | > 100 µM | > 100 µM | > 100 µM | > 100 µM | > 100 µM | – | – | – | – | – | – | – | – | – | –
C/C(=N\N=C(N)N)C(CN1CCOCC1)C(c1ccccc1)c1c(O)c2ccccc2oc1=O (centres undefined) | > 100 µM | > 100 µM | > 100 | > 100 µM | > 100 µM | > 100 µM | > 100 µM | > 100 µM | > 100 µM | > 100 | – | – | – | – | – | – | – | – | –
C=CC1=C(C)C(/C=c2\[nH]/c(=C/c3[nH]c(CC4NC(=O)C(C)/C4=C\C)c(C)c3CCC(=O)O)c(CC(=O)O)c2C)=NC1=O (centres undefined) | > 100 µM | > 100 µM | > 100 | > 100 µM | > 100 µM | > 100 µM | – | > 100 µM | > 100 µM | > 100 | – | – | – | – | – | – | – | – | –
O=C1CCC2(O)c3ccccc3C2Cc2ccccc21 (centres undefined) | – | > 100 µM | > 100 | > 100 µM | > 100 µM | > 100 µM | > 100 µM | > 100 µM | > 100 µM | > 100 | – | – | – | – | – | – | – | – | –
Cc1cc(OCc2ccc(C(F)(F)F)cc2)c2c(c1)C(=O)C=C(NCCN1CCCC1)C2=O | 4.83 µM | – | – | 5.01 µM | – | 18.7 µM | 4.36 µM | 22.2 µM | 3.27 µM | 6.97 | 2.05 | 5.36 | 1.79 µM | 1.94 | 4.92 µM | 1.87 µM | 2.6 | 6.85 µM | 1.67 µM
O=C1C=CC2C3C(=O)N(c4ccccc4)C(=O)C3C1N2Cc1ccccc1 (centres undefined) | 8.15 µM | – | – | 4.47 µM | – | > 48.3 µM | 5.18 µM | 18.8 µM | 8.67 µM | 7 | 3.45 | 8.87 | 4.1 µM | 2.07 | 5.37 µM | 1.59 µM | 1.87 | 8.08 µM | 3.22 µM
OC1OCC(COc2cc(Cl)c(Cl)cc2Cl)OC1O (centres undefined) | > 100 µM | > 100 µM | 90.8 | > 100 µM | > 100 µM | > 100 µM | 77.9 µM | > 100 µM | > 100 µM | – | – | – | – | – | – | – | – | – | –
Oc1c(C(c2ccc(F)cc2)N2CCCCC2)ccc2cncnc12 (centres undefined) | 13.4 µM | – | – | > 100 µM | – | > 100 µM | > 100 µM | > 100 µM | 12.2 µM | > 100 | 0.576 | > 100 | 0.899 µM | 0.747 | 0.414 µM | 0.555 µM | 0.675 | 1.35 µM | 0.711 µM
COc1cc(C2c3cc4c(cc3[C@@H](NC3CCN(Cc5ccccc5)CC3)C3COC(=O)[C@H]23)OCO4)cc(OC)c1O (some centres undefined) | 0.694 µM and 2 µM | 3.11 µM and 2.26 µM | – | 1.93 µM and 0.41 µM | 3.28 µM and 0.841 µM | 0.623 µM and 0.224 µM | 2.82 µM and 0.465 µM | 2.56 µM and 0.608 µM | 11.9 µM and 2.12 µM | 0.02 | – | – | 0.0372 µM and 0.277 µM | – | 0.126 µM and 0.0406 µM | 0.151 µM and 0.054 µM | – | 0.679 µM and 0.197 µM | 1.42 µM and 0.256 µM
Cc1ccc(/C=C2\CCCCC2=O)cc1 | > 100 µM | > 100 µM | > 100 | > 100 µM | > 100 µM | > 100 µM | – | > 100 µM | – | – | – | – | – | – | – | – | – | – | –
Cc1ccc2ccccc2c1CSc1nc(N)nc2c1ncn2CC(C)C | > 48.9 µM | – | – | > 100 µM | – | > 100 µM | > 73.3 µM | > 100 µM | > 87.3 µM | 50.6 | – | > 100 | – | – | – | – | – | – | –
COc1ccc(N=NC2=C(O)CCC2=O)cc1 | > 100 µM | > 100 µM | > 100 | > 100 µM | – | > 100 µM | – | > 100 µM | > 100 µM | – | – | – | – | – | – | – | – | – | –
CCOP(=O)(OCC)/C(=C/n1c(=S)[nH]c2ccccc21)C(=O)OC | > 100 µM | – | – | > 100 µM | – | > 100 µM | > 100 µM | > 100 µM | > 100 µM | > 100 | – | > 100 | – | – | – | – | – | > 100 µM | –
Cc1cc(-c2ccccc2)nc(Nc2cc3ccccc3[nH]2)n1 | > 100 µM | > 100 µM | – | > 100 µM | > 100 µM | > 100 µM | > 100 µM | > 100 µM | > 100 µM | > 100 | – | – | – | – | – | – | – | – | –
COc1ccc(C(C2=C(O)CC(C)OC2=O)C2=C(O)CC(C)OC2=O)cc1 (centres undefined) | > 100 µM | > 100 µM | – | > 100 µM | > 100 µM | > 100 µM | > 100 µM | – | > 100 µM | > 100 | – | – | – | – | – | – | – | – | –
Cc1nnc(N/N=C/c2ccc([N+](=O)[O-])o2)[nH]c1=O | > 100 µM | – | – | > 100 µM | – | > 100 µM | > 32 µM | > 25 µM | 5.26 µM | > 100 | 0.566 | > 21.5 | 1.79 µM | 3.63 | 1.37 µM | 2.95 µM | 1.1 | 1.03 µM | 0.0512 µM
CC1=CC(C)=N/C(=N/S(=O)(=O)c2cc(C)c(Cl)cc2SCc2ccccc2)NN1 | > 100 µM | – | – | > 100 µM | – | > 100 µM | > 100 µM | > 100 µM | > 100 µM | > 100 | > 100 | > 100 | > 100 µM | > 100 | > 100 µM | > 100 µM | > 100 | > 100 µM | > 100 µM
CCCCCCCCCCCCCCNCC(OC)OC | – | 28.6 µM | 26.4 | 14.3 µM | 28.8 µM | 36.8 µM | – | 32.9 µM | 37.5 µM | – | – | – | – | – | – | – | – | – | –
CCC(O)CCCCCCCCCCCCCCC(=O)O (centres undefined) | > 100 µM | > 100 µM | > 100 | > 100 µM | – | > 100 µM | > 100 µM | > 100 µM | > 100 µM | > 100 | – | – | – | – | – | – | – | – | –
COC(=O)Nc1nc2ccc(C(=O)c3cccc(I)c3)cc2[nH]1 | 11.2 µM | – | – | 26 µM | – | 21.1 µM | 1.27 µM | 32.7 µM | > 100 µM | – | 0.16 | 6.57 | 0.0538 µM | 0.0375 | 0.183 µM | 0.0365 µM | 0.0314 | 6.37 µM | 15.1 µM
